Data reported in patent US20070098735A1, “Methods for the Elimination of Pathogens and Other Particulate Agents” (priority 2005, published 2007).

Tests used:
[1] = tested on: Murine macrophage lines (RAW264.7, J774.A1 or RAW264NO-); experiment: Phagocytosis assay in vitro (uptake of Alexa Fluor 488-labeled particles); assay type: cell-based; parameters: effect of LR-disrupting drugs on HSP70-mediated phagocytosis: dose or concentration left out as unconfirmed; settings: for uptake of labeled S. cerevisiae as compared to treatment with HSP70 (specificity controls): equimolar to HSP70 100 μg/ml, BSA 100 μg/ml, concavalin A 6 μg/ml, adjuvants 10 μl/well, ADP, ATP 3 mM
Protocol: Phagocytosis Assay in vitro. RAW 264.7, RAW264.7 (NO-) and J774A.1 cells were cultured in DMEM or RPMI (RAW NO-) with 10% FCS, harvested, and washed. 3×10^5 cells/well were incubated in serum-free Earle's minimal essential medium (EMEM) in a 24-well plate for 1 hour at 37° C. Alexa Fluor® 488-labeled particles (inert polystyrene microspheres; or yeast, Saccharomyces cerevisiae or Gram-negative bacteria, Escherichia coli, 40 particles/macrophage) were added and co-incubated in a dark environment for 60 minutes in serum free EMEM with or without HSPs, LPS, or control proteins. At the end of 60 minutes incubation, the plate was covered in a dark container on ice. Specific measures were taken to exclude the fluorescence that resulted from particles that were outside of the cell or sticking to the surface of the cell. […] Specifically, trypan blue (0.8 mg/ml) was added for 60 seconds and plates were analyzed immediately using FluorImager SI (Molecular Dynamics/Amersham). Since the emission of Alexa Fluor® 488, about 519 nm at an excitation of about 490 nm, falls within the absorbance range of trypan blue (475-675 nm), the fluorescence of the sample only represents the intracellular fluorescence. External or surface-bound fluorescence is quenched. Using Student's t test, the results were analyzed and P-values were calculated.
HSP-mediated phagocytosis was quantified by measuring the internalized fluorescence measured by FluorImager SI and Relative Mean Fluorescence Intensity (RMFI) was compared between the treatment groups (as indicated). All the treatment groups were compared to medium alone using the Student's t test and significance denoted by P<0.01. The error bar represents one standard deviation. The results shown are a cumulative analysis of 3 experiments, 3 wells/group.

[2] = tested on: CD4+ T cells purified from spleens of DO 11.10 mice; experiment: Proliferation of CD4+ T cells after MHC-II presentation of OVA-coated yeast by macrophages (FACS); assay type: cell-based; settings: cytochalasin-D treatment
Protocol: Proliferation of CD4+ T cells and INF-γ (interferon gamma) release. Unlabeled S. cerevisiae (80 μg) was incubated with excess chicken ovary albumin (OVA) at 37° C. for 1 hour and washed repeatedly to eliminate free OVA protein. S. cerevisiae-OVA complexes (OVA-coated yeast) were administered to macrophages treated with or without HSP70. Macrophages were then washed and irradiated at 12,000 rads and assessed for viability by trypan blue exclusion. Subsequently, they were co-cultured with CD4+ T lymphocytes that were purified from spleens of DO 11.10 mice and labeled with carboxyfluoroscein succinimidyl ester (CSFE). […] Following the 48-hour incubation, proliferation of CD4+ cells was determined with FACS and IFN-γ release in the supernatant was tested by enzyme-linked immunosorbent assay (ELISA; Pierce, Ill.).
Alexafluor labeled S. cerevisiae were coated with whole ovalbumin (OVA) protein 1 mg/ml by co-incubation at 37° C. for 20 minutes and washed until free OVA protein was removed (washes were tested by gel electrophoresis using SDS-PAGE and immunoblotting). […] Resultant proliferation of the CSFE-labeled CD4+ was measured by FACS as an indirect measure of the amount of OVA protein processed and its peptide epitope presented in context of MHC-II. […]

[3] = tested on: full thickness surgical wounds on the dorsum of BALB/cJ mice; experiment: Closure of full thickness surgical wounds, percent wound closure; assay type: in vivo; settings: day 2 post surgery; for wound healing on day 2: 30 μg/dose
Protocol: Surgery and Treatment. Mice were anesthetized using Ketamine (2.0 mg/mouse) and Xylazine (0.1 mg/mouse) were administered intraperitoneally (IP) and the dorsal skin was shaved. After sterile prepping of the area, a full thickness circular wound, 8 mm diameter, was made on the dorsal skin using a disposable biopsy punch (Miltex Inc, York, Pa.) on the midline of the dorsum approximately at the iliac crest. The mice were then randomly assigned into the treatment groups. Initial wound measurements were performed while the mice were still anesthetized. Mice were then treated on days 0, 2, 4, and 6 unless otherwise specified. All agents used as treatment were diluted in 0.5 ml of PBS and injected using a 25-gauge needle in the subcutaneous space in the nape of the neck. The surgical procedures, post-operative monitoring, and safety concerns were approved by the Institutional Animal Care and Usage Committee.
Measurements and Analysis. Wound healing of open wounds is a complex process with many parameters to consider. […] The wound surface area was determined by measuring the craniocaudal and lateromedial distances using vernier calipers in perpendicular axis on days 0, 2, 4, 6, 9, and 11 postoperatively unless noted. Changes in wound area were expressed as percent wound closure. Wound closure data was plotted as average percent wound closure ±SEM unless otherwise noted. All calculations and data analysis were performed using Microsoft Excel and Sigma Plot. Sigma Plot was used to perform Student's t-tests for reported P values.
Full thickness surgical wounds were created on the dorsum of BALB/cJ mice as described in Methods. Wounds were made on day 0. Subsequently, the wounds were treated with exogenous injections of HSP70, HSP90, gp96 (30 μg/dose) or buffer administered subcutaneously (SC) on days 0, 2, 4 and 6 following surgery (FIG. 6A). The wounds were measured on days 0, 2, 4, 6, 9, 11 unless otherwise noted. Wounds were measured serially, percent wound closure was calculated and plotted against time in order to quantitate the rate of healing by secondary intention. […] Data is plotted as average percent wound closure ±SEM on days indicated. Two mice from each treatment group (PBS (n=12), HSP70 (n=11), HSP90 (n=12), and gp96 (n=11)) were sacrificed for histology on days 2, 4, and 6 post-surgery (data not shown). The P values obtain using the Student's t-test.
Results are of average percent wound closure ±SEM on day 2 post surgery. The *P values were obtained using the Student's t-test by comparing HSP treatment to all of the non-HSP control treatments. The least significant P value was reported. […] Doses higher than 50 μg/dose were not tested.

Nc1ncnc2c1ncn2[C@@H]1O[C@H](COP(=O)(O)OP(=O)(O)O)[C@@H](O)[C@H]1O [ADP, adenosine diphosphate]
uptake of labeled S. cerevisiae as compared to treatment with HSP70 (specificity controls) [1]: ineffective

Nc1ncnc2c1ncn2[C@@H]1O[C@H](COP(=O)(O)OP(=O)(O)OP(=O)(O)O)[C@@H](O)[C@H]1O [ATP, adenosine triphosphate]
uptake of labeled S. cerevisiae as compared to treatment with HSP70 (specificity controls) [1]: ineffective

C=CCn1c(=O)n([C@@H]2O[C@H](CO)[C@@H](O)[C@H]2O)c2nc(N)[nH]c(=O)c21 [LRB, Loxoribine]
dose dependence of inhibitory effect on HSP70-mediated phagocytosis ([1]; LRB 0-330 μM, HSP70 100 μg/ml): titratable by dose

C=C1[C@@H](C)[C@H]2[C@H](Cc3ccccc3)NC(=O)[C@]23[C@H](OC(C)=O)/C=C/[C@@](C)(O)C(=O)[C@@H](C)C/C=C/[C@H]3[C@@H]1O [cytochalasin-D, reference compound]
effect on HSP70-mediated internalization (actin polymerization inhibited) ([1]; cytochalasin-D 4 μM with HSP70): showed inhibition of the effects of HSP70 | effect on CD4+ proliferation caused by HSP70-treatment [2]: abrogated the proliferation caused by HSP70-treatment

C[C@@H]1[C@H](O)[C@@H](C)/C=C/C=C/CC/C=C/C=C/C=C/C=C/C(O[C@H]2O[C@H](C)[C@@H](O)[C@H](N)[C@@H]2O)CC2O[C@](O)(CC(O)C(O)CCC(O)CC(O)CC(O)CC(=O)O[C@H]1C)CC(O)C2C(=O)O (some centres unmarked) [nystatin]
effect of LR-disrupting drugs on HSP70-mediated phagocytosis ([1]; nystatin or MCD, labeled yeast 40 particles/macrophage): HSP70-mediated phagocytosis was inhibited

O=c1[nH]c(=O)c2[nH]c(=O)[nH]c2[nH]1 [uric acid, reference compound]
wound healing on day 2 [3]: 13% | wound closure of non-HSP controls compared to PBS control [3]: not significantly different to the PBS control

beta galactosidase
uptake of labeled S. cerevisiae as compared to treatment with HSP70 (specificity controls) [1]: None of control proteins used enhanced uptake

bovine serum albumin [BSA]
uptake of labeled S. cerevisiae as compared to treatment with HSP70 (specificity controls) [1]: None of control proteins used enhanced uptake

concavalin A
uptake of labeled S. cerevisiae as compared to treatment with HSP70 (specificity controls) [1]: None of control proteins used enhanced uptake

B1: phosphorylase B (protein, UniProt P00489 2-843, looked up)
Glycogen phosphorylase, …: SRPLSDQEKRKQISVRGLAGVENVTELKKNFNRHLHFTLVKDRNVATPRDYYFALAHTVRDHLVGRWIRTQQHYYEKDPKRIYYLSLEFYMGRTLQNTMVNLALENACDEATYQLGLDMEELEEIEEDAGLGNGGLGRLAACFLDSMATLGLAAYGYGIRYEFGIFNQKICGGWQMEEADDWLRYGNPWEKARPEFTLPVHFYGRVEHTSQGAKWVDTQVVLAMPYDTPVPGYRNNVVNTMRLWSAKAPNDFNLKDFNVGGYIQAVLDRNLAENISRVLYPNDNFFEGKELRLKQEYFVVAATLQDIIRRFKSSKFGCRDPVRTNFDAFPDKVAIQLNDTHPSLAIPELMRVLVDLERLDWDKAWEVTVKTCAYTNHTVLPEALERWPVHLLETLLPRHLQIIYEINQRFLNRVAAAFPGDVDRLRRMSLVEEGAVKRINMAHLCIAGSHAVNGVARIHSEILKKTIFKDFYELEPHKFQNKTNGITPRRWLVLCNPGLAEIIAERIGEEYISDLDQLRKLLSYVDDEAFIRDVAKVKQENKLKFAAYLEREYKVHINPNSLFDVQVKRIHEYKRQLLNCLHVITLYNRIKKEPNKFVVPRTVMIGGKAAPGYHMAKMIIKLITAIGDVVNHDPVVGDRLRVIFLENYRVSLAEKVIPAADLSEQISTAGTEASGTGNMKFMLNGALTIGTMDGANVEMAEEAGEENFFIFGMRVEDVDRLDQRGYNAQEYYDRIPELRQIIEQLSSGFFSPKQPDLFKDIVNMLMHHDRFKVFADYEEYVKCQERVSALYKNPREWTRMVIRNIATSGKFSSDRTIAQYAREIWGVEPSRQRLPAPDEKIP
notes: control protein of molecular weight corresponding to the HSPs
wound healing on day 2 [3]: 19% | wound closure of non-HSP controls compared to PBS control [3]: not significantly different to the PBS control | uptake of labeled S. cerevisiae as compared to treatment with HSP70 (specificity controls) [1]: None of control proteins used enhanced uptake
